Where two headings read alike, the source gives them in different places.
Key:
γ-secretase [1] = target: γ-secretase (Mus musculus (Mouse), UniProt P49769); assay: Cell-based activity assay, N2A cells stably over-expressing APP
Procedure: (§1) The potency of two structurally different GSIs was assayed in four unique γ-secretase activity assays. IC50 values were determined from the dose response curves using a non-linear regression analysis in the Prism software. An in vitro assay was based on the one previously reported by Li et al. (2000), except we utilized Sb4 substrate that eliminated the need for biotinylated antibody. The cell-based activity assay used N2A mouse neuroblastoma cells stably over-expressing APP and a biotinylated 4G8 antibody that binds the C-terminus of the amyloid beta peptide. The exo-cell assay incubated HeLa cells simultaneously with GSI, Sb4 substrate as well as 0.25% CHAPSO detergent prior to detecting substrate cleavage. Finally, the extended exo-cell assay first incubated HeLa cells with GSI for 24 hrs. Subsequently, the cells were washed 1× in PBS and then incubated with Sb4 substrate and CHAPSO detergent. The assay was then carried out exactly as described for the original exo-cell method. All assays incorporate ruthenylated G2-10* antibody to detect 40-site cleavage of APP or recombinant Sb4 substrate and quantitated activity by measuring ECL. The latter assays were performed as previously described (Li et al., 2000). In the in vitro assay, recombinant Sb4 substrate was incubated for 2.5 hours at 37° C. in pH 7.0 PIPES buffer in the presence of 0.25% CHAPSO detergent and solubilized γ-secretase at a final concentration of 40 ng/ul. The detection of cleaved substrate was determined using ruthenylated G2-10* antibody. Since the Sb4 substrate is biotinylated additional 6E10 biotinylated antibody used in earlier assays is not required. In the cell-based assay, N2A mouse neuroblastoma cells that stably overexpress amyloid precursor protein were incubated with γ-secretase inhibitors in a final concentration of 1% DMSO for 24 hrs. Following incubation, the supernatant was removed from the cells and assayed for Aβ40, the cleaved APP product, using ruthenylated G2-10* antibody as well as biotinylated 4G8 antibody.

γ-secretase [2] = target: T1, γ-secretase (Homo sapiens (Human), UniProt P49768); assay: Exo-cell γ-secretase assay, HeLa cells, Sb4 substrate; assay type: cell-based
Procedure: Therefore, HeLa cells were first incubated with Sb4 substrate, as well as CHAPSO detergent as depicted in FIG. 14c. Cells were seeded at their indicated concentration in 96-well plates and allowed to attach overnight. The next day, media was removed and cells were washed once with PBS. Fresh media was then added containing 0.25% CHAPSO detergent, Sb4 substrate to a final concentration of 1 μM, and 1% DMSO or γ-secretase inhibitor. This was incubated for 2.5 hours at 37° C. Media was removed and cell debris was pelleted from this media for 5 min. at 3,500 rpm. Supernatant was then added to ruthenylated G2-10* antibody that recognizes cleaved product, but not uncleaved substrate. This was incubated for an additional 2 hours at room temperature. Finally, magnetic streptavidin beads were added to a final concentration of 80 μg/ml and incubated for 30 min. at room temperature. Assay buffer was added to the samples and γ-secretase-mediated cleavage of substrate was monitored using electrochemiluminescence (ECL) (Li et al., 2000). (FIG. 14c).
as §1

γ-secretase [3] = target: T1, γ-secretase; assay: Extended exo-cell γ-secretase assay, HeLa cells; assay type: cell-based
Procedure: as §1, with “In the cell-based assay, N2A mouse neuroblastoma cells that stably overexpress amyloid precursor protein were incubated with γ-secretase inhibitors in a final concentration of 1% DMSO for 24 hrs. Following incubation, the supernatant was removed from the cells and assayed for Aβ40, the cleaved APP product, using ruthenylated G2-10* antibody as well as biotinylated 4G8 antibody.” left out
The exo-cell assay was adapted to monitor real-time γ-secretase activity and inhibition over extended times of pretreatment regimens. […] This modified, extended treatment exo-cell assay is capable of quantifying remaining γ-secretase activity following drug treatment on virtually any cell type. The IC50 values for Compound E and GSI-34 were calculated using the extended exo-cell assay (Table 3 and FIG. 15d). […]

γ-secretase [4] = target: T1, γ-secretase; assay: In vitro γ-secretase assay, solubilized γ-secretase, ECL; assay type: biochemical; details: Sb4 substrate
Description: The γ-secretase cleaved Aβ product derived from C100Flag substrate was detected by a pair of antibodies (biotinylated 4G8 and ruthenylated G2-10*) while Sb4 cleaved product was detected by ruthenylated G2-10* alone (FIG. 10a) and quantified using electrochemiluminescence (ECL) technology.
An in vitro assay was based on the one previously reported by Li et al. (2000), except we utilized Sb4 substrate that eliminated the need for biotinylated antibody. […] All assays incorporate ruthenylated G2-10* antibody to detect 40-site cleavage of APP or recombinant Sb4 substrate and quantitated activity by measuring ECL.

**Q.** Which results are given for `CC(NC(=O)Cc1cc(F)cc(F)c1)C(=O)NC1N=C(c2ccccc2)c2ccccc2N(C)C1=O` (centres unmarked) [Compound E]?
**A.** IC50 (γ-secretase [1]; 24 hrs, Aβ40; read-out: Cell-based (nM), IC50): 4.6 nM; IC50 (γ-secretase [1]; read-out: Cell-based (nM), IC50; 24 hrs, Aβ40): 4.6 nM; IC50 (γ-secretase [2]; ECL detection, read-out: Exo-Cell (nM), IC50): 3.8 nM; IC50 (γ-secretase [2]; IC50, exo-cell assay, HTRF detection): 5.4 nM; IC50 (γ-secretase [2]; read-out: Exo-Cell (nM), IC50, ECL detection): 3.8 nM; IC50 (γ-secretase [3]; 24 hrs pretreatment, read-out: Extended Exo-Cell (nM), IC50): 2.8 nM; IC50 (γ-secretase [3]; Extended Exo-Cell (nM), IC50, 24 hrs pretreatment): 2.83 nM; IC50 (γ-secretase [4]): 1.2 nM
